SMILES strings stand for the structures. Where two headings read alike, the source gives them in different places.

In general, Ki refers to the equilibrium dissociation constant of an inhibitor or competing ligand from its target. The IC50 is the midpoint of a concentration-inhibition curve.

For one assay, the target named is T1, α2A receptors (Rattus norvegicus, UniProt P22909).
T1 construct: from tissue; host or cells: rat cortex membranes
T1 sequence (P22909 1-465): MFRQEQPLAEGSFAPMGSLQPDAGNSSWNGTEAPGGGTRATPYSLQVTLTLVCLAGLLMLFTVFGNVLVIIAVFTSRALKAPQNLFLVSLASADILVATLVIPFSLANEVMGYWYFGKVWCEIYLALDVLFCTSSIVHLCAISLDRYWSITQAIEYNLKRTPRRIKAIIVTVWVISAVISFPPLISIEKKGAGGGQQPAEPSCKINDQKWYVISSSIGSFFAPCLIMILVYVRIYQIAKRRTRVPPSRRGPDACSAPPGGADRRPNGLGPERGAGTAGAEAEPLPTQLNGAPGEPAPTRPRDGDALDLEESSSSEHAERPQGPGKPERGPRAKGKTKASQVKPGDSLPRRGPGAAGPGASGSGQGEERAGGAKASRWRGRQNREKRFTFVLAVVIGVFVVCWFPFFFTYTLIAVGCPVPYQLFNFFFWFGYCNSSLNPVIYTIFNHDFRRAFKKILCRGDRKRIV
Description: Binding of [3H]RX821002 to α2A receptors (rat cortex membranes). The protocol: Membrane preparations of rat cortex as described previously in the literature were performed. The organs were homogenized in a Potter with the aid of a motor unit (Fisatom) and Teflon piston in the proportion of 20 parts of 50 mM Tris HCl (pH 7.4 at 4° C.) for one piece of material, three times for 30 seconds each time, at intervals the solution was allowed to stand on ice for 1 minute.
Then it was performed a centrifugation at 900×g for 10 minutes at 4° C. It was obtained a […] which was resuspended in solution cold 50 mM Tris-HCl (pH 7.4) and the same procedure was performed once more. The supernatant was then centrifuged at 48,000×g for 10 minutes at 4° C. yielding a pellet which was resuspended at a ratio of 20 parts of 50 mM Tris HCl (pH 7.4 at 4° C.) for one piece of material, and incubated at 37° C. for 10 minutes in order to remove the endogenous neurotransmitters. Finally, centrifugation two times more at 48,000×g was performed for 10 minutes at 4° C., and then the final pellet was resuspended in a solution of 50 mM Tris-HCl (pH 7.4).
Binding assays for the α2A receptor were performed as described previously in the literature and previously standardized in the laboratory by saturation experiments. […] Incubate for 60 minutes at 30° C., 150 membrane preparation of rat cortex contained 50 μL was suspended in 50 mM Tris-HCl into tubes containing 400 μL intermediate solution ([3H] RX821002 1.25 nM, 50 mM Tris (pH 7.4 at 37° C.) and 50 μL of different concentrations of LDT's (final concentration 10^−7-3×10^−5 M to LDT65-68) or 50 μL of 50 mM Tris-HCl pH 7.4 at 37° C. (solvent for dilution of the LDT's), to determine the total binding or 50 μL nonradioactive bitartrate adrenaline at 100 μM for determining the non-specific bounding (final volume 500 μL). Assays were performed in triplicate.
After the incubation period, the reaction was stopped by adding 4 mL ice cold solution containing 5 mM Tris (pH 7.4), followed by vacuum filtration on glass fiber filter (GMF 3, Filtrak®) previously soaked with solution 0.5% polyethylenoimine. The filters were washed three times with 4 mL of ice-cold solution containing 5 mM Tris (pH 7.4) under vacuum to remove all free radioligand. Then the filters were dried and placed in vials containing 5 ml scintillation fluid (composition: 4% PPO, 0.1% POPOP w/v in toluene). The radioactivity retained on the filters was then determined in a liquid scintillation counter (Packard Tri-Carb 1600 TR). Specific binding of [3H]RX821002 to a2A receptors was defined as the difference between total binding and non-specific binding. To these receptors were determined and IC50 and Ki parameters.

The target of another assay is T2, 5-HT1A receptors (Rattus norvegicus, UniProt P19327).
T2 construct: Intrinsic Activity at Native 5-HT1A Receptors; from tissue; host or cells: rat hippocampus membranes
T2 sequence (P19327 1-422): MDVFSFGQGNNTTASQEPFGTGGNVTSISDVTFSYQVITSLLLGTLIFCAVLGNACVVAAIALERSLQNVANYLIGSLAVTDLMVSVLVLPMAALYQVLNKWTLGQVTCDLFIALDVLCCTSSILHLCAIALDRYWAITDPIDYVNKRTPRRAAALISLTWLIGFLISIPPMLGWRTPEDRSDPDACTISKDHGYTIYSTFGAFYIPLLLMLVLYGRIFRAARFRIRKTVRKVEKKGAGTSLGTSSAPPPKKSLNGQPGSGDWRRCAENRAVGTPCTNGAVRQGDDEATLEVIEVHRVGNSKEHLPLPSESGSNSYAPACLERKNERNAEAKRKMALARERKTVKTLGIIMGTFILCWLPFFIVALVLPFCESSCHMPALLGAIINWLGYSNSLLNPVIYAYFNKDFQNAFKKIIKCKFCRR
Put plainly: Binding of [3H]p-MPPF with GTP to 5-HT1A receptors; intrinsic activity (Ki low/Ki high). The conditions noted are these: for pharmacological classification: from Ki low/Ki high; for Ki value ratios for low and high affinity receptor states: in words; for Ki: read-out: Ki low, antagonist radioligand [3H] p-MPPF in the presence of GTP; for Ki low/Ki high: estimate of intrinsic activity. The procedure: Membrane preparations of rat hippocampus according to previously described by HALL et al (1985) and PEROUTKA (1986) were performed. The homogenization and centrifugation steps were performed identically to that described above for receptors α2A and 5-HT2A receptors.
The binding assays for the 5-HT1A receptors were performed as described previously in the literature and previously standardized in the laboratory through saturation experiments. […] (solvent for dilution of LDT's) for the determination of total binding, or 50 μL non-radioative serotonin at 10 μM to determine the non-specific binding (final volume of 500 μL). Assays were performed in triplicate. […] Assays were performed in triplicate.
After the incubation period, the reaction was stopped by adding 4 ml of ice-cold solution containing 5 mM Tris (pH 7.4), followed by vacuum filtration on glass fiber filter (GMF 3, Filtrak®) previously soaked with solution 0.5% polyethylenoimine. The filters were washed three times with 4 mL of ice-cold solution containing 5 mM Tris (pH 7.4) under vacuum to remove all free radioligand. Then the filters were dried and placed in vials containing 5 ml scintillation fluid (composition: 4% PPO, 0.1% POPOP w/p in toluene). The radioactivity retained on the filters was then determined in a liquid scintillation counter (Packard Tri-Carb 1600 TR). […] For these receptors were also determined the […] and Ki parameters.
The GTP presence displaces the GPCR to a state of low affinity (Lahti et al, 1992). The intrinsic activity of a substance can be estimated using GPCR agonist or antagonist radioligand appropriate to define the affinity of the substance in the state of high and low affinity receptor, respectively.

For a further assay, the target named is muscarinic receptors. The format is binding, rat. The note with it: Table 14; for Ki: Cheng-Prusoff.
[1] abbreviates: Table 12, Cheng-Prusoff, read-out: Ki.
Where [2] appears, read: Table 12, read-out: -log IC50 (converted).
[3] abbreviates: Table 6, Cheng-Prusoff, read-out: Ki.

Turning to `COc1cccc(CCN2CCN(c3ccccc3OC)CC2)c1` [LDT 3], at α2A receptors (setting [1]), the Ki came to 930 nM. The half-maximal inhibitory concentration (IC50) on α2A receptors (setting [2]) was 1100 nM. The pharmacological classification result on 5-HT1A receptors (Table 13) is “antagonist”. Also, the “Ki value ratios for low and high affinity receptor states” value on 5-HT1A receptors is “close to the unity”. Moreover, on muscarinic receptors, the “-log 1050 (M)” value was determined as 4.26 ± 0.07 M and the affinity corresponds to a Ki of 56700 nM.
In the case of `COc1ccc(CCN2CCN(c3ccccc3OC)CC2)cc1OC` [LDT 5], on α2A receptors, the IC50 is 295 nM and the affinity corresponds to a Ki of 240 nM. Besides, on 5-HT1A receptors (Table 13), the pharmacological classification result was “antagontist”. Further, on muscarinic receptors, the “-log 1050 (M)” value is given as 3.97 ± 0.06 M and the Ki was determined as 108000 nM.
Turning to `CCOc1ccccc1N1CCN(CCc2ccc3c(c2)OCO3)CC1` [LDT 8], the inhibition constant (Ki) at α2A receptors (setting [1]) was determined as 550 nM. Also, on α2A receptors (setting [2]), the half-inhibitory concentration (IC50) is 603 nM. On 5-HT1A receptors (Table 13), the pharmacological classification entry was “partial antagonist” and the Ki was 0.62 nM. Moreover, at 5-HT1A receptors, the “Ki value ratios for low and high affinity receptor states” value was “close to the unity”. Further, on muscarinic receptors, the “-log 1050 (M)” value came out at 4.48 ± 0.07 M and the Ki amounted to 33900 nM.
On to `CCCCCN1CCN(c2ccccc2OC)CC1` [LDT 65], for which, at α2A receptors, the 50% inhibitory concentration (IC50) is 2510 nM and affinity was put at a Ki of 1500 nM. Also, the “Ki low/Ki high” value on 5-HT1A receptors (Table 9) is listed as 1.18. Moreover, at muscarinic receptors, the “-log 1050 (M)” value is 3.3 ± 0.08 M and the Ki came to 172000 nM.
`CCCCCCN1CCN(c2ccccc2OC)CC1` [LDT 66]: the “log IC50 (M)” value at α2A receptors (Table 6) is given as −5.92 ± 0.06 M. Also, the Ki on α2A receptors (setting [3]) came out at 800 nM. For the same compound, on 5-HT1A receptors (Table 9), the Ki amounted to 9 nM and the “Ki low/Ki high” value is on record as 1.80. Besides, on muscarinic receptors, the “-log 1050 (M)” value stood at 3.8 ± 0.08 M and the Ki was 54200 nM.
In the case of `CCCCCCCN1CCN(c2ccccc2OC)CC1` [LDT 67], the “log IC50 (M)” value on α2A receptors (Table 6) was −6.10 ± 0.06 M. The Ki at α2A receptors (setting [3]) came to 500 nM. Also, on 5-HT1A receptors (Table 9), the inhibition constant Ki was 6.7 nM and the “Ki low/Ki high” value is listed as 0.37. For the same compound, on muscarinic receptors, the “-log 1050 (M)” value is given as 4.2 ± 0.02 M and the affinity, expressed as Ki, was 21000 nM.
As for `CCCCCCCCN1CCN(c2ccccc2OC)CC1` [LDT 68], the “log IC50 (M)” value at α2A receptors (Table 6) was −6.01 ± 0.03 M. Also, the results for the Ki on α2A receptors (setting [3]), on 5-HT1A receptors (Table 9) and on muscarinic receptors were 600 nM, 3.1 nM and 10800 nM, respectively. For the same compound, the “Ki low/Ki high” value at 5-HT1A receptors (Table 9) is listed as 0.34. Besides, the “-log 1050 (M)” value at muscarinic receptors is reported as 4.5 ± 0.05 M.
On α2A receptors, `CCOc1ccccc1N1CCN(CCc2ccc(OC)c(OC)c2)CC1` [LDT 245] gave a half-inhibitory concentration (IC50) of 2000 nM and an inhibition constant Ki of 160 nM.

These data come from patent US20150011566A1, “N-PHENYLPIPERAZINE DERIVATIVES THAT ARE ANTAGONISTS OF A1A, A1D ADRENOCEPTORS AND 5-HT1A RECEPTORS FOR THE TREATMENT OF BENIGN PROSTATE HYPERPLASIA, PHARMACEUTICAL COMPOSITIONS CONTAINING THE SAME” (UNIVERSIDADE FEDERAL DO RIO DE JANEIRO-UFRJ, priority 2012, published 2015).
